What all share (assay type): functional
Common to all, as to conditions: 144 h, read-out: GI

The subject of test [1] is Echinochloa crus-galli. The test can be described thus: Herbicidal activity against Echinochloa crus-galli (barnyard grass) assessed as inhibition of root growth at 50 ppm after 6 days by flat-utensil method relative to control.
Test [2] has as its system Amaranthus retroflexus. The test can be described thus: Herbicidal activity against Amaranthus retroflexus assessed as inhibition of stalk growth at 100 ppm after 6 days by flat-utensil method relative to control.
Test [3] relates to Echinochloa crus-galli. The test can be described thus: Herbicidal activity against Echinochloa crus-galli (barnyard grass) assessed as inhibition of stalk growth at 50 ppm after 6 days by flat-utensil method relative to control.
For test [4], the system named is Sorghum bicolor. Put plainly: Herbicidal activity against Sorghum bicolor assessed as inhibition of stalk growth at 100 ppm after 6 days by flat-utensil method relative to control.
For test [5], the system named is Digitaria sanguinalis. Put plainly: Herbicidal activity against Digitaria sanguinalis (hairy crabgrass) assessed as inhibition of root growth at 100 ppm after 6 days by flat-utensil method relative to control.
Test [6] deals with Amaranthus retroflexus. The test can be described thus: Herbicidal activity against Amaranthus retroflexus assessed as inhibition of root growth at 100 ppm after 6 days by flat-utensil method relative to control.
Test [7] has as its system Amaranthus retroflexus. Put plainly: Herbicidal activity against Amaranthus retroflexus assessed as inhibition of stalk growth at 50 ppm after 6 days by flat-utensil method relative to control.
Test [8] deals with Chenopodium ficifolium. The test can be described thus: Herbicidal activity against Chenopodium ficifolium assessed as inhibition of stalk growth at 100 ppm after 6 days by flat-utensil method relative to control.
Test [9] has as its system Chenopodium ficifolium. The test can be described thus: Herbicidal activity against Chenopodium ficifolium assessed as inhibition of stalk growth at 50 ppm after 6 days by flat-utensil method relative to control.
Test [10] concerns Sorghum bicolor. The test can be described thus: Herbicidal activity against Sorghum bicolor assessed as inhibition of stalk growth at 50 ppm after 6 days by flat-utensil method relative to control.
Test [11] deals with Sorghum bicolor. Put plainly: Herbicidal activity against Sorghum bicolor assessed as inhibition of root growth at 50 ppm after 6 days by flat-utensil method relative to control.
For test [12], the system named is Digitaria sanguinalis. Put plainly: Herbicidal activity against Digitaria sanguinalis (hairy crabgrass) assessed as inhibition of root growth at 50 ppm after 6 days by flat-utensil method relative to control.
In test [13] the test system is Amaranthus retroflexus. The test can be described thus: Herbicidal activity against Amaranthus retroflexus assessed as inhibition of root growth at 50 ppm after 6 days by flat-utensil method relative to control.
For test [14], the system named is Echinochloa crus-galli. The test can be described thus: Herbicidal activity against Echinochloa crus-galli (barnyard grass) assessed as inhibition of stalk growth at 100 ppm after 6 days by flat-utensil method relative to control.
For test [15], the system named is Chenopodium ficifolium. The test can be described thus: Herbicidal activity against Chenopodium ficifolium assessed as inhibition of root growth at 50 ppm after 6 days by flat-utensil method relative to control.
Test [16] deals with Chenopodium ficifolium. Put plainly: Herbicidal activity against Chenopodium ficifolium assessed as inhibition of root growth at 100 ppm after 6 days by flat-utensil method relative to control.
The test system of test [17] is Sorghum bicolor. Put plainly: Herbicidal activity against Sorghum bicolor assessed as inhibition of root growth at 100 ppm after 6 days by flat-utensil method relative to control.
The subject of test [18] is Digitaria sanguinalis. The test can be described thus: Herbicidal activity against Digitaria sanguinalis (hairy crabgrass) assessed as inhibition of stalk growth at 50 ppm after 6 days by flat-utensil method relative to control.
The test system of test [19] is Echinochloa crus-galli. Put plainly: Herbicidal activity against Echinochloa crus-galli (barnyard grass) assessed as inhibition of root growth at 100 ppm after 6 days by flat-utensil method relative to control.
Test [20] has as its system Digitaria sanguinalis. Put plainly: Herbicidal activity against Digitaria sanguinalis (hairy crabgrass) assessed as inhibition of stalk growth at 100 ppm after 6 days by flat-utensil method relative to control.

For the compound `Cc1cc(C)n2s/c(=N\C(=O)[C@H](c3ccc(Cl)cc3)C(C)C)nc2n1`, the inhibition of growth at 50 ppm was found to be 30% with Echinochloa crus-galli [1]; 50% with Echinochloa crus-galli [3]; 50% in the test on Amaranthus retroflexus [7]; 50% with Chenopodium ficifolium [9]; 20% in the test on Sorghum bicolor [10]; 20% in the test on Sorghum bicolor [11]. The inhibition of growth at 50 ppm with Digitaria sanguinalis [12] was found to be 45%; with Amaranthus retroflexus [13], 50%; in the test on Chenopodium ficifolium [15], 50%; in the test on Digitaria sanguinalis [18] it was 55%. Further, the inhibition of growth at 100 ppm in the test on Amaranthus retroflexus [2] worked out at 95%; in the test with Sorghum bicolor [4], 25%; in the test on Digitaria sanguinalis [5] it was 80%; in the test with Amaranthus retroflexus [6] it was 100%; with Chenopodium ficifolium [8] it was 80%; in the test with Echinochloa crus-galli [14] it was 80%. For the same compound, the inhibition of growth at 100 ppm with Chenopodium ficifolium [16] was 85%; with Sorghum bicolor [17], 20%; in the test on Echinochloa crus-galli [19] it was 30%; in the test on Digitaria sanguinalis [20], 90%.
Regarding `COc1cc(OC)n2s/c(=N\C(=O)[C@H](c3ccc(Cl)cc3)C(C)C)nc2n1`, the inhibition of growth at 50 ppm was found to be 20% in the test with Echinochloa crus-galli [1]; 40% in the test with Echinochloa crus-galli [3]; 45% in the test on Amaranthus retroflexus [7]; 90% in the test with Chenopodium ficifolium [9]; 25% in the test with Sorghum bicolor [10]; 20% with Sorghum bicolor [11]. The inhibition of growth at 50 ppm with Digitaria sanguinalis [12] is 40%; in the test with Amaranthus retroflexus [13], 40%; with Chenopodium ficifolium [15], 90%; in the test on Digitaria sanguinalis [18], 50%. Further, the inhibition of growth at 100 ppm was found to be 80% with Amaranthus retroflexus [2]; 40% with Sorghum bicolor [4]; 80% with Digitaria sanguinalis [5]; 95% in the test with Amaranthus retroflexus [6]; 90% in the test with Chenopodium ficifolium [8]; 70% in the test with Echinochloa crus-galli [14]. Besides, the inhibition of growth at 100 ppm was 90% with Chenopodium ficifolium [16], 50% with Sorghum bicolor [17], 20% with Echinochloa crus-galli [19] and 90% in the test on Digitaria sanguinalis [20].
In the case of `CC(C)[C@H](C(=O)/N=c1/nc2nc(Cl)cc(Cl)n2s1)c1ccc(Cl)cc1`, the inhibition of growth at 50 ppm in the test on Echinochloa crus-galli [1] came out at 30%; with Echinochloa crus-galli [3] it was 40%; with Amaranthus retroflexus [7], 50%; in the test with Chenopodium ficifolium [9], 20%; in the test with Sorghum bicolor [10] it was 20%; in the test on Sorghum bicolor [11] it was 20%. In addition, the inhibition of growth at 50 ppm in the test on Digitaria sanguinalis [12] is 0%; in the test on Amaranthus retroflexus [13] it was 45%; with Chenopodium ficifolium [15], 30%; in the test on Digitaria sanguinalis [18] it was 0%. In addition, the inhibition of growth at 100 ppm is 75% in the test on Amaranthus retroflexus [2]; 30% in the test on Sorghum bicolor [4]; 0% in the test on Digitaria sanguinalis [5]; 80% in the test with Amaranthus retroflexus [6]; 40% with Chenopodium ficifolium [8]; 75% in the test on Echinochloa crus-galli [14]. Further, the inhibition of growth at 100 ppm with Chenopodium ficifolium [16] stood at 60%; in the test with Sorghum bicolor [17], 20%; in the test with Echinochloa crus-galli [19], 50%; in the test with Digitaria sanguinalis [20], 10%.
For `COc1cc(Cl)n2s/c(=N\C(=O)[C@H](c3ccc(Cl)cc3)C(C)C)nc2n1`, the inhibition of growth at 50 ppm with Echinochloa crus-galli [1] was determined as 80%; in the test with Echinochloa crus-galli [3], 60%; in the test on Amaranthus retroflexus [7], 0%; with Chenopodium ficifolium [9], 10%; with Sorghum bicolor [10], 60%; in the test on Sorghum bicolor [11], 60%. The inhibition of growth at 50 ppm turned out to be 0% with Digitaria sanguinalis [12], 0% with Amaranthus retroflexus [13], 10% in the test with Chenopodium ficifolium [15] and 0% in the test with Digitaria sanguinalis [18]. The inhibition of growth at 100 ppm with Amaranthus retroflexus [2] amounted to 20%; in the test on Sorghum bicolor [4], 80%; in the test with Digitaria sanguinalis [5], 10%; in the test on Amaranthus retroflexus [6] it was 30%; in the test with Chenopodium ficifolium [8], 20%; in the test on Echinochloa crus-galli [14], 70%. Further, the inhibition of growth at 100 ppm in the test on Chenopodium ficifolium [16] is 10%; with Sorghum bicolor [17], 80%; with Echinochloa crus-galli [19], 100%; with Digitaria sanguinalis [20], 10%.
For the compound `Cc1cc(O)n2s/c(=N\C(=O)[C@H](c3ccc(Cl)cc3)C(C)C)nc2n1`, the inhibition of growth at 50 ppm with Echinochloa crus-galli [1] turned out to be 70%; in the test on Echinochloa crus-galli [3], 30%; in the test with Amaranthus retroflexus [7], 60%; in the test with Chenopodium ficifolium [9], 70%; in the test on Sorghum bicolor [10], 35%; with Sorghum bicolor [11], 30%. Also, the inhibition of growth at 50 ppm in the test on Digitaria sanguinalis [12] is 20%; in the test with Amaranthus retroflexus [13] it was 50%; in the test with Chenopodium ficifolium [15] it was 50%; with Digitaria sanguinalis [18], 10%. The inhibition of growth at 100 ppm in the test on Amaranthus retroflexus [2] came to 95%; in the test with Sorghum bicolor [4], 40%; in the test with Digitaria sanguinalis [5], 25%; with Amaranthus retroflexus [6], 90%; with Chenopodium ficifolium [8], 100%; with Echinochloa crus-galli [14] it was 40%. Further, the inhibition of growth at 100 ppm in the test with Chenopodium ficifolium [16] was determined as 80%; with Sorghum bicolor [17], 30%; in the test on Echinochloa crus-galli [19], 80%; with Digitaria sanguinalis [20], 10%.
As for `Cc1cc(Cl)n2s/c(=N\C(=O)[C@H](c3ccc(Cl)cc3)C(C)C)nc2n1`, the inhibition of growth at 50 ppm was 70% in the test with Echinochloa crus-galli [1]; 10% in the test on Echinochloa crus-galli [3]; 90% in the test on Amaranthus retroflexus [7]; 80% in the test on Chenopodium ficifolium [9]; 10% in the test with Sorghum bicolor [10]; 20% in the test on Sorghum bicolor [11]. For the same compound, the inhibition of growth at 50 ppm with Digitaria sanguinalis [12] came to 30%; in the test on Amaranthus retroflexus [13], 85%; in the test on Chenopodium ficifolium [15] it was 80%; in the test on Digitaria sanguinalis [18], 30%. Moreover, the inhibition of growth at 100 ppm with Amaranthus retroflexus [2] worked out at 100%; in the test on Sorghum bicolor [4] it was 20%; in the test on Digitaria sanguinalis [5], 40%; in the test on Amaranthus retroflexus [6], 100%; with Chenopodium ficifolium [8] it was 85%; with Echinochloa crus-galli [14], 30%. Besides, the inhibition of growth at 100 ppm with Chenopodium ficifolium [16] is 90%; in the test with Sorghum bicolor [17], 40%; in the test with Echinochloa crus-galli [19] it was 90%; with Digitaria sanguinalis [20], 30%.
Regarding `Cc1cc(C)n2s/c(=N\C(=O)C(c3ccc(Cl)cc3)C(C)C)nc2n1` (racemic), the inhibition of growth at 50 ppm in the test with Echinochloa crus-galli [1] is 0%; in the test on Echinochloa crus-galli [3] it was 20%; in the test on Amaranthus retroflexus [7], 10%; with Chenopodium ficifolium [9], 40%; in the test on Sorghum bicolor [10], 0%; with Sorghum bicolor [11] it was 0%. Also, the inhibition of growth at 50 ppm stood at 30% with Digitaria sanguinalis [12], 20% in the test with Amaranthus retroflexus [13], 35% in the test with Chenopodium ficifolium [15] and 40% in the test with Digitaria sanguinalis [18]. For the same compound, the inhibition of growth at 100 ppm came to 20% with Amaranthus retroflexus [2]; 10% in the test with Sorghum bicolor [4]; 70% in the test on Digitaria sanguinalis [5]; 50% in the test on Amaranthus retroflexus [6]; 70% in the test with Chenopodium ficifolium [8]; 25% in the test with Echinochloa crus-galli [14]. Also, the inhibition of growth at 100 ppm in the test with Chenopodium ficifolium [16] is 60%; in the test on Sorghum bicolor [17] it was 0%; in the test on Echinochloa crus-galli [19], 10%; with Digitaria sanguinalis [20], 60%.
`COc1cc(OC)n2s/c(=N\C(=O)C(c3ccc(Cl)cc3)C(C)C)nc2n1` (racemic): the inhibition of growth at 50 ppm with Echinochloa crus-galli [1] turned out to be 0%; in the test on Echinochloa crus-galli [3], 30%; with Amaranthus retroflexus [7] it was 30%; in the test on Chenopodium ficifolium [9] it was 20%; in the test on Sorghum bicolor [10], 10%; in the test with Sorghum bicolor [11], 0%. The inhibition of growth at 50 ppm came to 30% in the test with Digitaria sanguinalis [12], 20% in the test with Amaranthus retroflexus [13], 20% in the test on Chenopodium ficifolium [15] and 35% in the test on Digitaria sanguinalis [18]. For the same compound, the inhibition of growth at 100 ppm is 30% in the test on Amaranthus retroflexus [2]; 20% in the test with Sorghum bicolor [4]; 60% with Digitaria sanguinalis [5]; 45% with Amaranthus retroflexus [6]; 50% in the test with Chenopodium ficifolium [8]; 30% with Echinochloa crus-galli [14]. The inhibition of growth at 100 ppm was 50% with Chenopodium ficifolium [16], 0% in the test on Sorghum bicolor [17], 0% with Echinochloa crus-galli [19] and 60% in the test with Digitaria sanguinalis [20].

These data come from ChEMBL document CHEMBL3045466, “Novel 2H-[1,2,4]thiadiazolo[2,3-a]pyrimidine derivatives bearing chiral S()-2-(4-chlorophenyl)-3-methylbutyric acid moiety: Design, synthesis and herbicidal activity” (2010).
